# Source: patent publication US5171837A, “Peptide capable of binding interleukin 6 and an adsorbent comprising the peptide immobilized on a carrier” (Kuraray Co., Ltd., priority 1989, dated 1992)
# No end group written: not given here.
# Molecular target: T1, IL-6 (Homo sapiens, UniProt P05231)
# T1 construct: purchased Genzyme Corp
# Assay: Activity for inhibition of binding of IL-6 to receptor by peptide (IL-6 receptor expression cells, FITC labeled anti-IL-6 antibody)
# Conditions: 5 μg of the peptide, 50 ng of IL-6, 10^5 IL-6 receptor expression cells, 4° C for one hour
# Procedure: A human lymphocyte fraction was obtained from human peripheral blood with Ficoll-Paque (manufactured by Pharmacia-LKB). The fraction was reacted with a cultured supernatant of Epstein-Barr Virus producing cell strain B958 to transform the human lymphocytes to obtain IL-6 receptor expression cells.
# 1 mg of anti-human IL-6 antibody [Rabbit Anti-human Interleukin-6, manufactured by Genzyme Corp.] was dissolved in a 0.05M carbonate buffer solution (pH: 9.5) and to the resulting solution was added 10 μg of FITC [Fluorescein isothiocyanate, manufactured by Sigma Corp.]. The mixture was stirred at 4° C. overnight. The resulting solution was passed through PD-10 column (manufactured by Pharmacia-LKB) to obtain FITC labeled anti-IL-6 antibody as a firstly eluted fraction.
# 10^5 IL-6 receptor expression cells were suspended in 0.5 % BSA (bovine serum albumin, manufactured by Sigma Corp.)-PBS (a phosphate buffer solution containing 0.15 M sodium chloride, pH 7.4) and to the resulting suspension were added 50 ng of IL-6 (Human recombinant interleukin-6, manufactured by Genzyme Corp.) and 5 μg of the peptide obtained in any one of Examples 1 to 96. The suspension was allowed to stand at 4° C for one hour. Then, after washing the cells centrifugally with 0.5% BSA-PBS three times (1200 rpm, 5 min.), 1 μg of FITC labeled anti-IL-6 antibody was added and the mixture was allowed to stand at 4° C. for 30 minutes. After washing with 0.5% BSA-PBS three times, the intensity of fluorescence of the cells was determined. The binding inhibition activity of the peptide of each Example was evaluated, by taking the value obtained without addition of the peptide as a control and taking the value- obtained without addition of IL-6 as a blank, according to the following formula: [formula]
# T1 sequence (P05231 30-212): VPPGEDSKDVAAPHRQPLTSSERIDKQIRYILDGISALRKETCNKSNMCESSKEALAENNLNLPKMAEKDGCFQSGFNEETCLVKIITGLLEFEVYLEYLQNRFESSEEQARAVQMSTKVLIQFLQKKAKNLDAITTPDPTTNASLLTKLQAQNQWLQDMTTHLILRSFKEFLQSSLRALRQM
row,Substance,Binding inhibition activity (%)
1,KKGTVHLLVDVPPEEPQLSCFRK [Example 10],28
2,KKHSWNSSFYRLRFELRYRAERSK [Example 58],60
3,KKNPRWLSVTWQDPHS [Example 50],25
4,KKPHSWNSSFYRLRFELRYRAERSK [Example 66],65
5,KKQALTTNKDDDNILFRDSA [Example 26],42
6,KKRKFQNSPAEDFQEPCQYSQES [Example 18],55
7,KKTSLPGDSVTLTCPGVEPED [Example 2],35
8,KKWNSSFYRLRFELRYRAERSK [Example 34],55
9,KNPRWLSVTWQDPHSD-NH2 [Example 54],28
10,KQALTTNKDDDNILFRDSAD-NH2 [Example 30],46
11,KRKFQNSPAEDFQEPCQYSQESD-NH2 [Example 22],58
12,KTSLPGDSVTLTCPGVEPEDD-NH2 [Example 6],36
13,KWNSSFYRLRFELRYRAERSKD-NH2 [Example 38],56
14,NPRWLSVTWQDPHS [Example 53],22
15,NPRWLSVTWQDPHSK [Example 49],30
16,PHSWNSSFYRLRFELRYRAERSKK [Example 65],68
17,QALTTNKDDDNILFRDSA [Example 29],41
18,QALTTNKDDDNILFRDSAK [Example 25],45
19,RKFQNSPAEDFQEPCQYSQES [Example 21],52
20,RKFQNSPAEDFQEPCQYSQESK [Example 17],60
21,TSLPGDSVTLTCPGVEPED [Example 5],28
22,WNSSFYRLRFELRYRAERSK [Example 37],48
23,WNSSFYRLRFELRYRAERSKK [Example 33],58

# More lines, now with the values ahead:
row,Binding inhibition activity (%),Substance
1,70,KKQDPHSWNSSFYRLRFELRYRAERSK [Example 82]
2,71,KKWQDPHSWNSSFYRLRFELRYRAERSK [Example 90]
3,59,KPHSWNSSFYRLRFELRYRAERSKD-NH2 [Example 70]
4,58,KQDPHSWNSSFYRLRFELRYRAERSKD-NH2 [Example 86]
5,63,KWQDPHSWNSSFYRLRFELRYRAERSKD-NH2 [Example 94]
6,54,PHSWNSSFYRLRFELRYRAERSK [Example 69]
7,60,QDPHSWNSSFYRLRFELRYRAERSK [Example 85]
8,76,QDPHSWNSSFYRLRFELRYRAERSKK [Example 81]
9,59,WQDPHSWNSSFYRLRFELRYRAERSK [Example 93]
10,68,WQDPHSWNSSFYRLRFELRYRAERSKK [Example 89]
